Test results reported in the NIST ThermoML archive (doi:10.1021/je060271a).
Values joined by “and” are separate entries in the source; they are usually repeats but may differ in a detail not shown here. Identical values can stand only once. ± gives the expanded uncertainty stated by the source.

Settings: 343.15 K, Liquid, Vibrating tube method

CCCCCCC(=O)OCC(COC(=O)CCCCCC)(COC(=O)CCCCCC)COC(=O)CCCCCC [pentaerythritol tetraheptanoate]
Settings | mass density
13341 kPa | 950.4 ± 1.2 kg/m3
13372 kPa | 950.4 ± 1.2 kg/m3
13408 kPa | 950.3 ± 1.2 kg/m3
13431 kPa | 950.4 ± 1.2 kg/m3
13453 kPa | 950.5 ± 1.2 kg/m3
13478 kPa | 950.4 ± 1.2 kg/m3
13499 kPa | 950.4 ± 1.2 kg/m3
13521 kPa | 950.4 ± 1.2 kg/m3
13546 kPa | 950.5 ± 1.2 kg/m3
13567 kPa | 950.5 ± 1.2 kg/m3
13589 kPa | 950.5 ± 1.2 kg/m3
13615 kPa | 950.5 ± 1.2 kg/m3
13637 kPa | 950.5 ± 1.2 kg/m3
13658 kPa | 950.6 ± 1.2 kg/m3
13661 kPa | 950.5 ± 1.2 kg/m3
13675 kPa | 950.6 ± 1.2 kg/m3
13680 kPa | 950.6 ± 1.2 kg/m3
13707 kPa | 950.6 ± 1.2 kg/m3
13729 kPa | 950.6 ± 1.2 kg/m3
13751 kPa | 950.7 ± 1.2 kg/m3
13779 kPa | 950.6 ± 1.2 kg/m3
13801 kPa | 950.7 ± 1.2 kg/m3
13824 kPa | 950.7 ± 1.2 kg/m3
13831 kPa | 950.7 ± 1.2 kg/m3
13845 kPa | 950.8 ± 1.2 kg/m3
13850 kPa | 950.6 ± 1.2 kg/m3
13858 kPa | 950.8 ± 1.2 kg/m3
13872 kPa | 950.8 ± 1.2 kg/m3
13895 kPa | 950.8 ± 1.2 kg/m3
13922 kPa | 950.8 ± 1.2 kg/m3
13944 kPa | 950.7 ± 1.2 kg/m3
13968 kPa | 950.8 ± 1.2 kg/m3
13995 kPa | 950.8 ± 1.2 kg/m3
14018 kPa | 950.9 ± 1.2 kg/m3
14041 kPa | 950.8 ± 1.2 kg/m3
14069 kPa | 950.8 ± 1.2 kg/m3
14093 kPa | 950.9 ± 1.2 kg/m3
14116 kPa | 950.9 ± 1.2 kg/m3
14140 kPa | 950.9 ± 1.2 kg/m3
14168 kPa | 950.9 ± 1.2 kg/m3
14191 kPa | 950.9 ± 1.2 kg/m3
14215 kPa | 951 ± 1.2 kg/m3
14244 kPa | 951 ± 1.2 kg/m3
14267 kPa | 950.8 ± 1.2 kg/m3
14296 kPa | 951 ± 1.2 kg/m3
14320 kPa | 951.1 ± 1.2 kg/m3
14344 kPa | 951.1 ± 1.2 kg/m3
14368 kPa | 951 ± 1.2 kg/m3
14397 kPa | 951.1 ± 1.2 kg/m3
14398 kPa | 951.2 ± 1.2 kg/m3
14410 kPa | 951.1 ± 1.2 kg/m3
14423 kPa | 951 ± 1.2 kg/m3
14427 kPa | 951.1 ± 1.2 kg/m3
14440 kPa | 951.1 ± 1.2 kg/m3
14447 kPa | 951.2 ± 1.2 kg/m3
14454 kPa | 951 ± 1.2 kg/m3
14468 kPa | 951.1 ± 1.2 kg/m3
14477 kPa | 951.2 ± 1.2 kg/m3
14482 kPa | 951.2 ± 1.2 kg/m3
14495 kPa | 951 ± 1.2 kg/m3
14502 kPa | 951.1 ± 1.2 kg/m3
14512 kPa | 951.2 ± 1.2 kg/m3
14526 kPa | 951.1 ± 1.2 kg/m3
14556 kPa | 951 ± 1.2 kg/m3
14581 kPa | 951.2 ± 1.2 kg/m3
14606 kPa | 951.1 ± 1.2 kg/m3
14632 kPa | 951.3 ± 1.2 kg/m3
14662 kPa | 951.1 ± 1.2 kg/m3
14688 kPa | 951.2 ± 1.2 kg/m3
14714 kPa | 951.3 ± 1.2 kg/m3
14744 kPa | 951.3 ± 1.2 kg/m3
14771 kPa | 951.3 ± 1.2 kg/m3
14797 kPa | 951.4 ± 1.2 kg/m3
14823 kPa | 951.4 ± 1.2 kg/m3
14855 kPa | 951.2 ± 1.2 kg/m3
14880 kPa | 951.4 ± 1.2 kg/m3
14907 kPa | 951.3 ± 1.2 kg/m3
14939 kPa | 951.4 ± 1.2 kg/m3
14965 kPa | 951.4 ± 1.2 kg/m3
14992 kPa | 951.5 ± 1.2 kg/m3
15024 kPa | 951.5 ± 1.2 kg/m3
15051 kPa | 951.6 ± 1.2 kg/m3
15078 kPa | 951.7 ± 1.2 kg/m3
15112 kPa | 951.6 ± 1.2 kg/m3
15135 kPa | 951.6 ± 1.2 kg/m3
15168 kPa | 951.5 ± 1.2 kg/m3
15196 kPa | 951.6 ± 1.2 kg/m3
15230 kPa | 951.7 ± 1.2 kg/m3
15257 kPa | 951.6 ± 1.2 kg/m3
15284 kPa | 951.8 ± 1.2 kg/m3
15310 kPa | 951.7 ± 1.2 kg/m3
15337 kPa | 951.7 ± 1.2 kg/m3
15354 kPa | 951.7 ± 1.2 kg/m3
15378 kPa | 951.7 ± 1.2 kg/m3
15402 kPa | 951.8 ± 1.2 kg/m3
15423 kPa | 951.8 ± 1.2 kg/m3
15449 kPa | 951.7 ± 1.2 kg/m3
15466 kPa | 951.8 ± 1.2 kg/m3
15491 kPa | 951.8 ± 1.2 kg/m3
15511 kPa | 951.8 ± 1.2 kg/m3
15531 kPa | 951.9 ± 1.2 kg/m3
15556 kPa | 951.9 ± 1.2 kg/m3
15577 kPa | 952 ± 1.2 kg/m3
15598 kPa | 951.9 ± 1.2 kg/m3
15623 kPa | 952.1 ± 1.2 kg/m3
15643 kPa | 951.9 ± 1.2 kg/m3
15664 kPa | 951.9 ± 1.2 kg/m3
15689 kPa | 951.9 ± 1.2 kg/m3
15710 kPa | 951.9 ± 1.2 kg/m3
15732 kPa | 951.9 ± 1.2 kg/m3
15753 kPa | 952.1 ± 1.2 kg/m3
15778 kPa | 952.1 ± 1.2 kg/m3
15800 kPa | 952 ± 1.2 kg/m3
15817 kPa | 952.1 ± 1.2 kg/m3
15847 kPa | 952.1 ± 1.2 kg/m3
15868 kPa | 952.2 ± 1.2 kg/m3
15890 kPa | 952.1 ± 1.2 kg/m3
15916 kPa | 952.2 ± 1.2 kg/m3
15938 kPa | 952.1 ± 1.2 kg/m3
15964 kPa | 952.1 ± 1.2 kg/m3
15985 kPa | 952.1 ± 1.2 kg/m3
16008 kPa | 952.2 ± 1.2 kg/m3
16034 kPa | 952.2 ± 1.2 kg/m3
16056 kPa | 952.2 ± 1.2 kg/m3
16079 kPa | 952.2 ± 1.2 kg/m3
16101 kPa | 952.2 ± 1.2 kg/m3
16128 kPa | 952.2 ± 1.2 kg/m3
16151 kPa | 952.3 ± 1.2 kg/m3
16174 kPa | 952.3 ± 1.2 kg/m3
16200 kPa | 952.4 ± 1.2 kg/m3
16223 kPa | 952.3 ± 1.2 kg/m3
16246 kPa | 952.4 ± 1.2 kg/m3
16269 kPa | 952.4 ± 1.2 kg/m3
16297 kPa | 952.4 ± 1.2 kg/m3
16320 kPa | 952.5 ± 1.2 kg/m3
16344 kPa | 952.5 ± 1.2 kg/m3
16367 kPa | 952.5 ± 1.2 kg/m3
16395 kPa | 952.6 ± 1.2 kg/m3
16418 kPa | 952.5 ± 1.2 kg/m3
16446 kPa | 952.4 ± 1.2 kg/m3
16469 kPa | 952.5 ± 1.2 kg/m3
16493 kPa | 952.7 ± 1.2 kg/m3
16516 kPa | 952.5 ± 1.2 kg/m3
16545 kPa | 952.7 ± 1.2 kg/m3
16569 kPa | 952.6 ± 1.2 kg/m3
16588 kPa | 952.6 ± 1.2 kg/m3
16616 kPa | 952.6 ± 1.2 kg/m3
16640 kPa | 952.6 ± 1.2 kg/m3
16669 kPa | 952.7 ± 1.2 kg/m3
16698 kPa | 952.5 ± 1.2 kg/m3
16723 kPa | 952.7 ± 1.2 kg/m3
16747 kPa | 952.8 ± 1.2 kg/m3
16771 kPa | 952.8 ± 1.2 kg/m3
16800 kPa | 952.8 ± 1.2 kg/m3
16825 kPa | 952.8 ± 1.2 kg/m3
16854 kPa | 952.8 ± 1.2 kg/m3
16879 kPa | 952.8 ± 1.2 kg/m3
16882 kPa | 952.8 ± 1.2 kg/m3
16904 kPa | 953 ± 1.2 kg/m3
16933 kPa | 952.8 ± 1.2 kg/m3
16958 kPa | 952.8 ± 1.2 kg/m3
16983 kPa | 952.9 ± 1.2 kg/m3
17013 kPa | 952.9 ± 1.2 kg/m3
17038 kPa | 952.9 ± 1.2 kg/m3
17064 kPa | 953.1 ± 1.2 kg/m3
17089 kPa | 952.9 ± 1.2 kg/m3
17120 kPa | 952.9 ± 1.2 kg/m3
17145 kPa | 953 ± 1.2 kg/m3
17176 kPa | 952.9 ± 1.2 kg/m3
17202 kPa | 952.9 ± 1.2 kg/m3
17228 kPa | 952.9 ± 1.2 kg/m3
17254 kPa | 953.1 ± 1.2 kg/m3
17285 kPa | 953 ± 1.2 kg/m3
17312 kPa | 953.1 ± 1.2 kg/m3
17340 kPa | 953 ± 1.2 kg/m3
17368 kPa | 953 ± 1.2 kg/m3
17394 kPa | 953.2 ± 1.2 kg/m3
17426 kPa | 953.1 ± 1.2 kg/m3
17453 kPa | 953.1 ± 1.2 kg/m3
17463 kPa | 953.2 ± 1.2 kg/m3
17480 kPa | 953.2 ± 1.2 kg/m3
17483 kPa | 953.2 ± 1.2 kg/m3
17507 kPa | 953.3 ± 1.2 kg/m3
17512 kPa | 953.2 ± 1.2 kg/m3
17528 kPa | 953.2 ± 1.2 kg/m3
17538 kPa | 953.2 ± 1.2 kg/m3
17548 kPa | 953.1 ± 1.2 kg/m3
17566 kPa | 953.2 ± 1.2 kg/m3
17572 kPa | 953.3 ± 1.2 kg/m3
17598 kPa | 953.3 ± 1.2 kg/m3
17625 kPa | 953.3 ± 1.2 kg/m3
17652 kPa | 953.3 ± 1.2 kg/m3
17686 kPa | 953.1 ± 1.2 kg/m3
17709 kPa | 953.4 ± 1.2 kg/m3
17742 kPa | 953.3 ± 1.2 kg/m3
17770 kPa | 953.4 ± 1.2 kg/m3
17798 kPa | 953.4 ± 1.2 kg/m3
17831 kPa | 953.5 ± 1.2 kg/m3
17859 kPa | 953.5 ± 1.2 kg/m3
17882 kPa | 953.5 ± 1.2 kg/m3
17887 kPa | 953.4 ± 1.2 kg/m3
17921 kPa | 953.4 ± 1.2 kg/m3
17949 kPa | 953.5 ± 1.2 kg/m3 and 953.6 ± 1.2 kg/m3
17971 kPa | 953.5 ± 1.2 kg/m3
17978 kPa | 953.5 ± 1.2 kg/m3
17993 kPa | 953.6 ± 1.2 kg/m3
18012 kPa | 953.5 ± 1.2 kg/m3
18019 kPa | 953.6 ± 1.2 kg/m3
18040 kPa | 953.4 ± 1.2 kg/m3
18075 kPa | 953.5 ± 1.2 kg/m3
18104 kPa | 953.5 ± 1.2 kg/m3
18133 kPa | 953.6 ± 1.2 kg/m3
18161 kPa | 953.6 ± 1.2 kg/m3
18196 kPa | 953.5 ± 1.2 kg/m3
18200 kPa | 953.7 ± 1.2 kg/m3
18226 kPa | 953.7 ± 1.2 kg/m3
18227 kPa | 953.7 ± 1.2 kg/m3
18250 kPa | 953.7 ± 1.2 kg/m3
18255 kPa | 953.7 ± 1.2 kg/m3
18275 kPa | 953.8 ± 1.2 kg/m3
18290 kPa | 953.7 ± 1.2 kg/m3
18320 kPa | 953.8 ± 1.2 kg/m3
18350 kPa | 953.7 ± 1.2 kg/m3
18386 kPa | 953.8 ± 1.2 kg/m3
